Results as given in US9757408B2 (Hayashibara Co., Ltd., priority 2010, dated 2017).
Marks after values point to notes of the source that are not given here.

Legend:
[1] = test system: mouse with severe acute pancreatitis induced by choline-deficient ethionine-added feed; assay: Severe acute pancreatitis induced by choline-deficient ethionine-added feed, survival (Experiment 15); format: in vivo, CD1(ICR) mice
Description: After seven days of a preliminary breeding, the mice were fasted for one day and allowed to freely take a choline-deficient ethionine-added feed, produced by Oriental Yeast Co., Ltd., Tokyo, Japan, for three days from the next day. Thereafter, the mice were fed on normal feed again and then fed on the choline-deficient ethionine-added feed. […] Eight mice in the remaining one group as a control were orally administered through a gastric tube with distilled water twice a day every morning and evening in a liquid volume of 0.2 mL/head/shot from the initiation of fasting. The survival number of mice in each group was macroscopically confirmed up to seven days from the initiation of taking the choline-deficient ethionine-added feed, and the survival rate (%) of mice in each group was determined. The survival rate (%) of mice was determined similarly as in Experiment 1.

[2] = test system: IL-5 production of spleen cells; assay: IL-5 production of spleen cells stimulated with anti-CD3 antibody, from gel-treated mice (Experiment 16); format: in vivo, NC/Nga mice; conditions: for production level of IL-5 of spleen cells stimulated with the anti-CD3 antibody: compared to mice applied with gel prepared by adding refined water (Experiment group 1); for Content of IL-5: supernatant of spleen cells stimulated with anti-CD3 antibody, picryl chloride-sensitized mice applied with gel
Method: On Friday of the 6th week of the induction (46th day after initiating the application), all the mice were sacrificed, followed by isolating their spleens and collecting spleen cells in usual manner. […] To each well 2 μg/mL of “Purified Mouse CD3ε Monoclonal Antibody”, a product name of an anti-CD3 antibody, commercialized by Cosmo Bio Co., Ltd., Tokyo, Japan, was added, and the cells were incubated at 37° C. for three days in a 5% v/v CO2 incubator, followed by assaying the levels of cytokines in each supernatant thereof.
The results are in Table 19 in parallel.

KK-Ay mice = KK-Ay mice kidney inflammation: body weight, kidney ratio, blood glucose, HbA1c, renal glomerulus consolidation (Experiment 14); format: in vivo; conditions: 10 weeks; for Percentage of subject with renal glomerulus solidification (++): (++) = at least 50% consolidation; for Blood glucose level: fasted 16 hours
Description: Fifty KK-Ay mice, 5-week-old, male, commercialized by Japan Crea Co., Tokyo, Japan, were preliminary bred for one week on CE-2 feed commercialized by Japan Crea Co., Tokyo, Japan, measured for body weight and blood glucose level in blood samples collected from their tail veins, and randomly grouped into five groups, ten heads each, after balancing each measured value. One of the five groups was made into a control group and the mice of the group were allowed to take water freely and bred for 10 weeks (Experiment group 1). […] Throughout the periods of preliminary breeding and testing, the mice were bred while freely allowing them to take CE-2 feed at 22±2° C. under a light-dark cycle of 12 hours (lighting: from 7:00 to 19:00). At the termination of the test, the mice were evaluated based on their body weight, weight ratio of kidney, blood glucose level, hemoglobin A1c (HbA1c), and pathological findings of renal disorder by autopsy, and the percentage of mice with at least 50% consolidation (++) of renal glomerulus against the total glomus is shown in Table 15. The weight ratio of kidney was determined by dividing the weight of kidney by the body weight. The blood glucose level, HbA1c, and denatured score of renal glomerulus were determined by the following method.
At the termination of the test, the mice were fasted for 16 hours prior to autopsy and collected blood from their postcava for measurement of fasting glucose level. The blood glucose level was determined by “GLUCOSE CII-TEST WAKO”, a product name of a commercialized reagent for blood glucose level commercialized by Wako Pure Chemical Industries Ltd., Tokyo, Japan.
At the termination of the test, the mice were fasted for 16 hours before autopsy and collected blood from their postcava for measurement of interdigestive HbA1c level. The measurement was asked FALCO biosystems Ltd., Kyoto, Japan, a privately-owned clinical inspection institute.
At the autopsy, each mouse was collected his kidney which was then fixed with neutral buffered formalin, prepared into a pathologic tissue section in usual manner, and stained with hematoxylin-eosin staining (H-E staining) and PAS staining. For the stained pathologic tissue section of each mouse, they were compared with that of the control and the pathological findings by microscopic observation were judged based on the following criteria and scored for an index of the denaturation of renal disorder.
The degree of renal disorder was judged based on the degree of consolidation of renal glomerulus: The degree was judged based on the four grades; (++), meaning that at least 50% consolidation of renal glomerulus is observed against the total glomus; (+), meaning that at least 25% but below 50% consolidation of renal glomerulus is observed against the total glomus; (±), meaning that less than 25% consolidation of renal glomerulus is observed against the total glomus; and (−), meaning that no consolidation of renal glomerulus is observed against the total glomus. The pathological findings of kidney was judged based on an evaluation criterion for pathologic tissue (see, for example, the lines 12 to 21 at page 862 of “American Journal of Pathology”, Vol. 160, No. 3, pp. 861-867, 2002, by Andrea Hartner et al.).

NHEK cells = assay: Cytotoxicity (released LDH) of NHEK cells irradiated with ultraviolet B (Experiment 17); format: cell-based, human; conditions: for LDH Activity: NHEK cells, stimulation by ultraviolet rays
[3] = test system: IL-1α production from NHEK cells; assay: IL-1α production from NHEK cells irradiated with ultraviolet B (Experiment 17); format: cell-based, human; conditions: for IL-1α: NHEK cells, stimulation by ultraviolet rays; for production of IL-1α from NHEK cells augmented by ultraviolet rays: UVB 40 mJ/cm^2, supernatant at six hours
Method: “CELLMATRIX TYPE IV”, a product name of collagen for tissue culture commercialized by Nitta Gelatin Inc., Osaka, Japan, which had been diluted with PBS(K-) by 10 times, was previously placed in “FALCON 35-3001”, a product name of 35 mm petri dish commercialized by Becton Dickinson and Company, NJ, USA, in an amount of 1 mL/plate, and then allowed to stand at ambient temperature for 10 min, followed by removing an excessive amount of CELLMATRIX, drying the petri dish in air, and washing it thrice with PBS(K-). […] The cells were cultured at 37° C. in a 5% v/v CO2 incubator. On the 2nd and 4th days after the cell inoculation, the medium was replaced with EpiLife medium free of EDGS (1 mL/plate). On the 5th day after the cell inoculation, the supernatant was removed, and the petri dish was washed twice by adding 1 mL/petri dish of Hanks' balanced salt solution (called “HBSS (−) buffer”, hereinafter). Further, 2 mL/petri dish of HBSS (−) buffer was added to the petri dish which was then placed in the position 15 cm apart from an ultraviolet ray light source and irradiated with 40 mJ/cm^2 of ultraviolet B radiation. […] As an ultraviolet ray light source, “NS-8F”, a light source for actual use commercialized by Sanwa Medical Co., Ltd., Okayama, Japan, equipped with an ultraviolet B radiation lamp was used, and the radiation dose was measured on “UVR-305/365D (II)”, an ultraviolet ray meter commercialized by Topcon Corporation, Tokyo, Japan. TNF-α was assayed by the same method as in Experiment 2. The remaining other cytokines were assayed with an IL-1α assay kit, commercialized by R & D Systems Inc., MN, USA, and an IL-8 assay kit commercialized by BioLegend, CA, USA.

[4] = oral 124 mg/kg body weight/shot twice a day
[5] = oral 46 mg/kg body weight/shot twice a day
[6] = oral 139 mg/kg body weight/shot twice a day

Compound | Survival rate (%) of mice, 48 Hours [1, 4] [%] | Survival rate (%) of mice, 70 Hours [1, 4] [%] | Survival rate (%) of mice, 78 Hours [1, 4] [%] | Survival rate (%) of mice, 94 Hours [1, 4] [%] | Survival rate (%) of mice, 102 Hours [1, 4] [%] | Survival rate (%) of mice, 144 Hours [1, 4] [%] | production level of IL-5 of spleen cells stimulated with the anti-CD3 antibody [2] | Content of IL-5 [2] [ng/mL] | HbA1c value (KK-Ay mice; 94 mg/kg body weight/day) [%] | Percentage of subject with renal glomerulus solidification (++) (KK-Ay mice; 94 mg/kg body weight/day) [%] | Blood glucose level (KK-Ay mice; 94 mg/kg body weight/day) [mg/dL] | LDH Activity (NHEK cells; 1 μM) [absorbance] | LDH Activity (NHEK cells; 5 μM) [absorbance] | LDH Activity (NHEK cells; 10 μM) [absorbance] | IL-1α ([3]; 1 μM) [pg/mL] | IL-1α ([3]; 5 μM) [pg/mL] | IL-1α ([3]; 10 μM) [pg/mL] | production of IL-1α from NHEK cells augmented by ultraviolet rays [3] | further results
Nc1ncnc2c1ncn2[C@@H]1O[C@H](CO)[C@@H](O)[C@H]1O [AN, adenosine] | 100.0 | 20.0 | 50.0 | 25.0 | 12.5 | 12.5 | showed no difference | 225 | 6.72 | 100 | 342 | 0.35 | 0.36 | 0.35 | 243 | 244 | 239 | did not influence | 
Nc1c2ncn([C@@H]3O[C@H](CO)[C@@H](O)[C@H]3O)c2nc[n+]1[O-] [ANO, adenosine N1-oxide] |  |  |  |  |  |  | tended to decrease | 157 |  |  |  | 0.32 | 0.23 | 0.14 | 203 | 173 | 140 | inhibited | Survival rate (%) of mice, 48 Hours [1, 5]: 100.0%; Survival rate (%) of mice, 70 Hours [1, 5]: 100.0%; Survival rate (%) of mice, 78 Hours [1, 5]: 50.0%; Survival rate (%) of mice, 94 Hours [1, 5]: 25.0%; Survival rate (%) of mice, 102 Hours [1, 5]: 12.5%; Survival rate (%) of mice, 144 Hours [1, 5]: 12.5%; Survival rate (%) of mice, 48 Hours [1, 6]: 100.0%; Survival rate (%) of mice, 70 Hours [1, 6]: 87.5%; Survival rate (%) of mice, 78 Hours [1, 6]: 75.0%; Survival rate (%) of mice, 94 Hours [1, 6]: 75.0%; Survival rate (%) of mice, 102 Hours [1, 6]: 75.0%; Survival rate (%) of mice, 144 Hours [1, 6]: 75.0%; HbA1c value (KK-Ay mice; 30 mg/kg body weight/day): 6.79%; Percentage of subject with renal glomerulus solidification (++) (KK-Ay mice; 30 mg/kg body weight/day): 50%; Blood glucose level (KK-Ay mice; 30 mg/kg body weight/day): 304 mg/dL; HbA1c value (KK-Ay mice; 100 mg/kg body weight/day, 100 mg/kg/day): 5.40* %; Percentage of subject with renal glomerulus solidification (++) (KK-Ay mice; 100 mg/kg body weight/day): 30%; Blood glucose level (KK-Ay mice; 100 mg/kg body weight/day): 305 mg/dL; HbA1c value (KK-Ay mice; 100 mg/kg body weight/day, listed as adenosine N1-oxide, 100 mg/kg/day): 5.40%; LDH released from NHEK cells by the stimulation of ultraviolet rays (NHEK cells; UVB 40 mJ/cm^2, supernatant at four hours): inhibited LDH released
OC[C@H]1O[C@@H](n2cnc3c(O)ncnc32)[C@H](O)[C@@H]1O [IN, inosine] | 100.0 | 60.0 | 62.5 | 50.0 | 25.0 | 12.5 | showed no difference | 209 | 6.55 | 80 | 340 | 0.34 | 0.34 | 0.32 | 246 | 243 | 228 | did not influence | 
